Experimental data published in PubChem BioAssay (NCI).
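At the GI50, growth is halved. TGI denotes the concentration required for complete inhibition of growth.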

What was measured:
Assay in all cases: NCI tumour cell line growth inhibition, 384-well format
[1] = tested on: 786-0 renal
[2] = tested on: A498 renal
[3] = tested on: A549 NSCLC
[4] = tested on: ACHN renal
[5] = tested on: BT-549 breast
[6] = tested on: CAKI-1 renal
[7] = tested on: CCRF-CEM leukemia
[8] = tested on: COLO 205 colon
[9] = tested on: DU-145 prostate
[10] = tested on: EKVX NSCLC
[11] = tested on: HCC-2998 colon
[12] = tested on: HCT-15 colon
[13] = tested on: HL-60(TB) leukemia
[14] = tested on: HOP-62 NSCLC
[15] = tested on: HOP-92 NSCLC
[16] = tested on: HS 578T breast
[17] = tested on: HT29 colon
[18] = tested on: IGROV1 ovarian
[19] = tested on: K-562 leukemia
[20] = tested on: KM12 colon
[21] = tested on: LOX IMVI melanoma
[22] = tested on: M14 melanoma
[23] = tested on: MALME-3M melanoma
[24] = tested on: MCF7 breast
[25] = tested on: MDA-MB-231 breast
[26] = tested on: MDA-MB-435 melanoma
[27] = tested on: MDA-MB-468 breast
[28] = tested on: MOLT-4 leukemia
[29] = tested on: NCI-H226 lung
[30] = tested on: NCI-H23 lung
[31] = tested on: NCI-H322M lung
[32] = tested on: NCI-H460 NSCLC
[33] = tested on: NCI-H522 lung
[34] = tested on: NCI/ADR-RES ovarian
[35] = tested on: OVCAR-3 ovarian
[36] = tested on: OVCAR-4 ovarian
[37] = tested on: OVCAR-5 ovarian
[38] = tested on: OVCAR-8 ovarian
[39] = tested on: PC-3 prostate
[40] = tested on: RPMI-8226 leukemia
[41] = tested on: RXF 393 renal
[42] = tested on: SF-268 CNS
[43] = tested on: SF-295 CNS
[44] = tested on: SF-539 CNS
[45] = tested on: SK-MEL-28 melanoma
[46] = tested on: SK-MEL-5 melanoma
[47] = tested on: SK-OV-3 ovarian
[48] = tested on: SN12C renal
[49] = tested on: SNB-19 CNS
[50] = tested on: SNB-75 CNS
[51] = tested on: SR leukemia
[52] = tested on: SW-620 colon
[53] = tested on: T-47D breast
[54] = tested on: TK-10 renal
[55] = tested on: U251 glioblastoma
[56] = tested on: UACC-257 melanoma
[57] = tested on: UACC-62 melanoma
[58] = tested on: UO-31 renal

c1ccc(-c2nn3c(c2-c2ccnc4cc(OCCN5CCOCC5)ccc24)CCC3)nc1
GI50 [1]: > 100 µM | TGI [1]: > 100 µM | GI50 [2]: > 100 µM | TGI [2]: > 100 µM | GI50 [3]: 29.9 µM | TGI [3]: > 100 µM | GI50 [4]: 66.9 µM | TGI [4]: > 100 µM | GI50 [5]: > 100 µM | TGI [5]: > 100 µM | GI50 [6]: 62.4 µM | TGI [6]: > 100 µM | GI50 [7]: 39.3 µM | TGI [7]: > 100 µM | GI50 [8]: 37.9 µM | TGI [8]: > 100 µM | GI50 [9]: > 100 µM | TGI [9]: > 100 µM | GI50 [10]: > 100 µM | TGI [10]: > 100 µM | GI50 [11]: > 100 µM | TGI [11]: > 100 µM | GI50 [12]: 37.3 µM | TGI [12]: > 100 µM | GI50 [13]: > 100 µM | TGI [13]: > 100 µM | GI50 [14]: > 100 µM | TGI [14]: > 100 µM | GI50 [15]: 85.6 µM | TGI [15]: > 100 µM | GI50 [16]: > 100 µM | TGI [16]: > 100 µM | GI50 [17]: 48.2 µM | TGI [17]: > 100 µM | GI50 [18]: > 100 µM | TGI [18]: > 100 µM | GI50 [19]: 23.4 µM | TGI [19]: > 100 µM | GI50 [20]: 85.1 µM | TGI [20]: > 100 µM | GI50 [21]: > 100 µM | TGI [21]: > 100 µM | GI50 [22]: > 100 µM | TGI [22]: > 100 µM | GI50 [23]: > 100 µM | TGI [23]: > 100 µM | GI50 [24]: 24.9 µM | TGI [24]: > 100 µM | GI50 [25]: > 100 µM | TGI [25]: > 100 µM | GI50 [26]: > 100 µM | TGI [26]: > 100 µM | GI50 [27]: 40.3 µM | TGI [27]: > 100 µM | GI50 [28]: 4.62 µM | TGI [28]: 17.4 µM | GI50 [29]: > 100 µM | TGI [29]: > 100 µM | GI50 [30]: > 100 µM | TGI [30]: > 100 µM | GI50 [31]: > 100 µM | TGI [31]: > 100 µM | GI50 [32]: 51.3 µM | TGI [32]: > 100 µM | GI50 [33]: 58.2 µM | TGI [33]: > 100 µM | GI50 [34]: > 100 µM | TGI [34]: > 100 µM | GI50 [35]: > 100 µM | TGI [35]: > 100 µM | GI50 [36]: > 100 µM | TGI [36]: > 100 µM | GI50 [37]: > 100 µM | TGI [37]: > 100 µM | GI50 [38]: > 100 µM | TGI [38]: > 100 µM | GI50 [39]: > 100 µM | TGI [39]: > 100 µM | GI50 [40]: 48 µM | TGI [40]: > 100 µM | GI50 [41]: > 100 µM | TGI [41]: > 100 µM | GI50 [42]: > 100 µM | TGI [42]: > 100 µM | GI50 [43]: > 100 µM | TGI [43]: > 100 µM | GI50 [44]: > 100 µM | TGI [44]: > 100 µM | GI50 [45]: > 100 µM | TGI [45]: > 100 µM | GI50 [46]: 16.2 µM | TGI [46]: > 100 µM | GI50 [47]: > 100 µM | TGI [47]: > 100 µM | GI50 [48]: > 100 µM | TGI [48]: > 100 µM | GI50 [49]: > 100 µM | TGI [49]: > 100 µM | GI50 [50]: > 100 µM | TGI [50]: > 100 µM | GI50 [51]: 40.3 µM | TGI [51]: > 100 µM | GI50 [52]: > 100 µM | TGI [52]: > 100 µM | GI50 [53]: > 100 µM | TGI [53]: > 100 µM | GI50 [54]: > 100 µM | TGI [54]: > 100 µM | GI50 [55]: > 100 µM | TGI [55]: > 100 µM | GI50 [56]: > 100 µM | TGI [56]: > 100 µM | GI50 [57]: > 100 µM | TGI [57]: > 100 µM | GI50 [58]: > 100 µM | TGI [58]: > 100 µM
